We go through 4 molecules from PMC13201543 (Communications Biology, 2026).

“Also recorded” adds a separate entry of the source.

One experiment has as its system A*33. Kind of experiment: Surface plasmon resonance, immobilized A*33. Format: binding, human. Conditions: for SPR binding to A*33 (in words): Biacore T200, recombinant A*33. On the technique in general: In SPR one partner is held on a chip, and binding of the other changes the refractive index at the surface.
Another experiment has as its system A*24. Kind of experiment: Surface plasmon resonance, immobilized A*24. It counts as binding, human.
A further experiment has as its system C*07. In words: Surface plasmon resonance, immobilized C*07. It counts as binding, human. Conditions: Biacore T200, recombinant C*07.
Experiment [1] has as its target recombinant C-terminal His-tag HLA-A*24 (human). Kind of experiment: SPR.
In experiment [2] the target is recombinant C-terminal His-tag HLA-A*33 (human). Kind of experiment: SPR.
Experiment [3] has as its target recombinant His-tag HLA-C*07 (human). Kind of experiment: SPR.

Regarding SMFWPCLLR [SAG2C], the “SPR binding to A*33 (in words)” value with A*33 was “higher binding affinity; also recorded: strong binding”. In addition, the “SPR binding to A*24 (in words)” value in the experiment on A*24 (Biacore T200, immobilized A*24, different concentrations of peptide) is reported as “relatively weaker binding”. For the same molecule, the “SPR binding response, A*24 compared with A*33” value in the experiment on A*24 (SAG2C 100 μM (Fig. 6C.iii)) is recorded as “Distinct decrease in SPR binding response”.
Turning to GNNQIDSTLKDLVEELSK [MSP3], the “SPR binding to A*33 (in words)” value in the experiment on A*33 is listed as “relatively weaker binding”. Also, in the experiment with A*33 (MSP3 100 μM (Fig. 8C.iii)), the “SPR binding response, A*33 compared with C*07” value is on record as “Distinct decrease in SPR binding response”. Also, the “binding to C*07 (in words)” value in the experiment with C*07 was “strong binding affinity”.

B1: Toxoplasma antigenic peptide SAG2C, wild type (peptide)
peptide: SMFWPCLLR
On to B1, for which the results for the SPR response at 200 uM in experiment [1] and in experiment [2] were 15 RU and 150 RU, respectively.

B2: Plasmodium antigenic peptide MSP3 (peptide)
peptide: GNNQIDSTLKDLVEELSK
With B2, the SPR response at 200 uM in experiment [2] amounted to 12 RU; in experiment [3], 60 RU.
